One test concerns the target ABL1 non-phosphorylated (Homo sapiens (Human), UniProt P00519). As to the kind of experiment: DiscoverX Kd Elect binding.
The subject of the next test is MV-4-11. Description: Proliferation inhibition at single concentration (CellTiter-Blue). The format is cell-based. To be noted: 1 μM compound. A general note: Alamar Blue is a resazurin reagent that responds to reducing activity.
The target of another test is TGFBR2 (Homo sapiens (Human), UniProt P37173). Description: Reaction Biology HotSpot kinase assay. To be noted: 500 nM compound; for inhibition at 0.5 µM: read-out: Percentage kinase inhibition TGFBR2. The format is biochemical. The method, boiled down:
(§1)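 HotSpot 33P transfer format. Enzyme, substrate and 500 nM test compound sit together for 20 min, then labelled and unlabelled ATP totalling 100 μM are added and phosphorylation proceeds for 2 h at room temperature. Products are captured on P81 cellulose paper, and activity is expressed relative to DMSO.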

The target of another test is MUSK (Homo sapiens (Human), UniProt O15146). As to the kind of experiment: Reaction Biology HotSpot kinase assay. The format is biochemical. To be noted: 500 nM compound; for inhibition at 0.5 µM: read-out: Percentage kinase inhibition MUSK. An outline of the steps:
as §1

The target in a further test is FAK/PTK2 (Homo sapiens (Human), UniProt Q05397). As to the kind of experiment: Reaction Biology HotSpot kinase assay. The format is biochemical. To be noted: 500 nM compound; for inhibition at 0.5 µM: read-out: Percentage kinase inhibition FAK/PTK2. An outline of the steps: as §1
The target in a further test is MEKK1 (Homo sapiens (Human), UniProt Q13233). As to the kind of experiment: Reaction Biology HotSpot kinase assay. The format is biochemical. To be noted: 500 nM compound; for inhibition at 0.5 µM: read-out: Percentage kinase inhibition MEKK1. An outline of the steps:
as §1

Another test deals with ITK (Homo sapiens (Human), UniProt Q08881). Description: Reaction Biology HotSpot kinase assay. The format is biochemical. To be noted: 500 nM compound; for inhibition at 0.5 µM: read-out: Percentage kinase inhibition ITK. The method, boiled down: as §1
For the next test, the target named is CSK (Homo sapiens (Human), UniProt P41240). As to the kind of experiment: Reaction Biology HotSpot kinase assay. The format is biochemical. To be noted: 500 nM compound; for inhibition at 0.5 µM: read-out: Percentage kinase inhibition CSK. The method, boiled down:
as §1

In a further test the target is ERBB4/HER4 (Homo sapiens (Human), UniProt Q15303). Description: Reaction Biology HotSpot kinase assay. The format is biochemical. To be noted: 500 nM compound; for inhibition at 0.5 µM: read-out: Percentage kinase inhibition ERBB4/HER4. The method, boiled down:
as §1

The target of a further test is TRKC (Homo sapiens (Human), UniProt Q16288). As to the kind of experiment: Reaction Biology HotSpot kinase assay. The format is biochemical. To be noted: 500 nM compound, 100 μM radiolabeled ATP. The method, boiled down: (§2)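 Each compound was tested at 500 nM, with 33P incorporation from ATP (100 μM final, including [γ-33P]ATP) measured by P81 paper capture after a 2 h room-temperature reaction.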

The next test has as its target AKT2 (Homo sapiens (Human), UniProt P31751). Description: Reaction Biology HotSpot kinase assay. The format is biochemical. To be noted: 500 nM compound; for inhibition at 0.5 µM: read-out: Percentage kinase inhibition AKT2. An outline of the steps:
as §1

In another test the target is CDK4/cyclin D1 (Homo sapiens (Human), UniProt P11802). As to the kind of experiment: Reaction Biology HotSpot kinase assay. It counts as biochemical. To be noted: 500 nM compound; for inhibition at 0.5 µM: read-out: Percentage kinase inhibition CDK4/cyclin D1. The method, boiled down:
as §2

The target in the next test is c-kit (Homo sapiens (Human), UniProt P10721). As to the kind of experiment: Reaction Biology HotSpot kinase assay. It counts as biochemical. To be noted: 500 nM compound, 100 μM radiolabeled ATP. An outline of the steps: as §2
The target in the next test is ABL1 phosphorylated (Homo sapiens (Human), UniProt P00519). As to the kind of experiment: DiscoverX Kd Elect binding.
For a further test, the system named is NCI H1703 (NSCLC). Description: Activity against lung cancer cell line. It counts as cell-based. To be noted: Homo sapiens, NCI-H1703.
For another test, the target named is FLT3 (Homo sapiens (Human), UniProt P36888). As to the kind of experiment: DiscoverX Kd Elect binding. The text has this:
Although the current drugs on the market or in clinical trials are relatively successful in killing the AML leukemia cells, they currently are unable to deal with secondary mutations that occur after TKI treatment, such as FLT3 ([…]).
HCK is expressed more in human primary leukemic stem cells than in human normal hematopoietic stem cells. […] Other protein kinases such as SYK, BRAF, p38 (p38MAPK), PDGFRα/β, FGFR1, RET, FLT4, Tie2 have also been linked to leukemia. […] (Table 9). The inhibition of the Src-kinase family could be important clinically because these kinases are downstream of FLT3. In the event of FLT3 mutation, the inhibition of the Src-family kinases could still lead to proliferation inhibition.

Another test has as its target FGR (Homo sapiens (Human), UniProt P09769). Description: DiscoverX Kd Elect binding. As for the experimental part: (§3) HCK is expressed more in human primary leukemic stem cells than in human normal hematopoietic stem cells. […] Other protein kinases such as SYK, BRAF, p38 (p38MAPK), PDGFRα/β, FGFR1, RET, FLT4, Tie2 have also been linked to leukemia. […] Thus, it was tested if HSN286 and analogs were also targeting kinases that play critical roles in AML. […] (Table 9). The inhibition of the Src-kinase family could be important clinically because these kinases are downstream of FLT3. In the event of FLT3 mutation, the inhibition of the Src-family kinases could still lead to proliferation inhibition.

A further test deals with AURKA (Homo sapiens (Human), UniProt O14965). Description: DiscoverX Kd Elect binding. As for the experimental part: as §3
For another test, the target named is FAK (Homo sapiens (Human), UniProt Q05397). Description: DiscoverX Kd Elect binding. As for the experimental part: as §3
In the next test the target is FYN (Homo sapiens (Human), UniProt P06241). As to the kind of experiment: DiscoverX Kd Elect binding. How it is done:
as §3

Another test has as its target BLK (Homo sapiens (Human), UniProt P51451). As to the kind of experiment: DiscoverX Kd Elect binding. How it is done:
as §3

Another test addresses SRC (Homo sapiens (Human), UniProt P12931). As to the kind of experiment: Inhibition of kinase enzymatic activity (IC50). The format is biochemical.
Another test concerns the target FLT3 (ITD, F691L) (Homo sapiens, UniProt P36888, F691L/ITD). As to the kind of experiment: DiscoverX Kd Elect binding.

The source of these data is patent US20250084039A1, “4-SUBSTITUTED AMINOISOQUINOLINE DERIVATIVES” (Purdue Research Foundation, priority 2016, published 2025).

In general, pKd refers to −log10 of the Kd, conventionally taken in molar units. A high value points to a small Kd. A word on the IC50: it is the concentration that inhibits the measured activity by half. A low value points to greater potency. As a reminder, the pIC50 is the IC50 on a negative log10 scale, so that one unit is a factor of ten.

pIC50, pKd: −log10 of the molar value. Where “and” joins values, the source holds several entries; their conditions need not be identical. Equal entries are not always repeated.

Chain of TRKC (Q16288 32-839): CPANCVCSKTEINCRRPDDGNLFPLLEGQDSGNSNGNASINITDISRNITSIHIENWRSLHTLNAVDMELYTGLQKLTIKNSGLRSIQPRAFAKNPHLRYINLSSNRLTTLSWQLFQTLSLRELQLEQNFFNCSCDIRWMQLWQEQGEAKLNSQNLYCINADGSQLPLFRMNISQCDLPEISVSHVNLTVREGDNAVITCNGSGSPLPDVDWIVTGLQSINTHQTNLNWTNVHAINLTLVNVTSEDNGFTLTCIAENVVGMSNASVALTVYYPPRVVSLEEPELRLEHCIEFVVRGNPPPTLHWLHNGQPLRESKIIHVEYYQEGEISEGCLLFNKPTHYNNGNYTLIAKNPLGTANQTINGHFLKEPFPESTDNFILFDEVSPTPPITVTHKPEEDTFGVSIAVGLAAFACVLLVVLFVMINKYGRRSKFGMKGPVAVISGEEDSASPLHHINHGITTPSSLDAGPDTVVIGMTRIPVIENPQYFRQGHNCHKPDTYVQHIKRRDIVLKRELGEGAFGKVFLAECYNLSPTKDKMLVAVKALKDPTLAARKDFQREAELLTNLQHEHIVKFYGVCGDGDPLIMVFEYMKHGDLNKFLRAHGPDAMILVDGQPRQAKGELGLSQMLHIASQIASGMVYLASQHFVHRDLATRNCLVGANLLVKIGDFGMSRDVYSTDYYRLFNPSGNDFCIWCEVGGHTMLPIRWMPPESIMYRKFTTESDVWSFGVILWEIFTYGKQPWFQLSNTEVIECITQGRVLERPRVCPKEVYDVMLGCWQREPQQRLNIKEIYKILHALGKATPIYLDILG
Chain of TGFBR2 (P37173 23-567): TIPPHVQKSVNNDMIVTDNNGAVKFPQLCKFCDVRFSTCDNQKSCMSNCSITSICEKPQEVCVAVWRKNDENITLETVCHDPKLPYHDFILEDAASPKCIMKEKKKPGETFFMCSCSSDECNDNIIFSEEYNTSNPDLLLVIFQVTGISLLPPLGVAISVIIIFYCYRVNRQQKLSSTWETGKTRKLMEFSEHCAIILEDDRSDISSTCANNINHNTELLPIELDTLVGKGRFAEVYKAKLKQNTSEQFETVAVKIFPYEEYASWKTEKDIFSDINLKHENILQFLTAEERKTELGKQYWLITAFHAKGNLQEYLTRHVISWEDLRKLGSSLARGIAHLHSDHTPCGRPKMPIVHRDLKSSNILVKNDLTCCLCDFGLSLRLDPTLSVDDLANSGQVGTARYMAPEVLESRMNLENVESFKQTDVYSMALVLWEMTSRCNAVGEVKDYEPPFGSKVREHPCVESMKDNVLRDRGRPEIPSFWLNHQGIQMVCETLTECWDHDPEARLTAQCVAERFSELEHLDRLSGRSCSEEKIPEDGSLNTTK
Chain of MEKK1 (Q13233 whole entry): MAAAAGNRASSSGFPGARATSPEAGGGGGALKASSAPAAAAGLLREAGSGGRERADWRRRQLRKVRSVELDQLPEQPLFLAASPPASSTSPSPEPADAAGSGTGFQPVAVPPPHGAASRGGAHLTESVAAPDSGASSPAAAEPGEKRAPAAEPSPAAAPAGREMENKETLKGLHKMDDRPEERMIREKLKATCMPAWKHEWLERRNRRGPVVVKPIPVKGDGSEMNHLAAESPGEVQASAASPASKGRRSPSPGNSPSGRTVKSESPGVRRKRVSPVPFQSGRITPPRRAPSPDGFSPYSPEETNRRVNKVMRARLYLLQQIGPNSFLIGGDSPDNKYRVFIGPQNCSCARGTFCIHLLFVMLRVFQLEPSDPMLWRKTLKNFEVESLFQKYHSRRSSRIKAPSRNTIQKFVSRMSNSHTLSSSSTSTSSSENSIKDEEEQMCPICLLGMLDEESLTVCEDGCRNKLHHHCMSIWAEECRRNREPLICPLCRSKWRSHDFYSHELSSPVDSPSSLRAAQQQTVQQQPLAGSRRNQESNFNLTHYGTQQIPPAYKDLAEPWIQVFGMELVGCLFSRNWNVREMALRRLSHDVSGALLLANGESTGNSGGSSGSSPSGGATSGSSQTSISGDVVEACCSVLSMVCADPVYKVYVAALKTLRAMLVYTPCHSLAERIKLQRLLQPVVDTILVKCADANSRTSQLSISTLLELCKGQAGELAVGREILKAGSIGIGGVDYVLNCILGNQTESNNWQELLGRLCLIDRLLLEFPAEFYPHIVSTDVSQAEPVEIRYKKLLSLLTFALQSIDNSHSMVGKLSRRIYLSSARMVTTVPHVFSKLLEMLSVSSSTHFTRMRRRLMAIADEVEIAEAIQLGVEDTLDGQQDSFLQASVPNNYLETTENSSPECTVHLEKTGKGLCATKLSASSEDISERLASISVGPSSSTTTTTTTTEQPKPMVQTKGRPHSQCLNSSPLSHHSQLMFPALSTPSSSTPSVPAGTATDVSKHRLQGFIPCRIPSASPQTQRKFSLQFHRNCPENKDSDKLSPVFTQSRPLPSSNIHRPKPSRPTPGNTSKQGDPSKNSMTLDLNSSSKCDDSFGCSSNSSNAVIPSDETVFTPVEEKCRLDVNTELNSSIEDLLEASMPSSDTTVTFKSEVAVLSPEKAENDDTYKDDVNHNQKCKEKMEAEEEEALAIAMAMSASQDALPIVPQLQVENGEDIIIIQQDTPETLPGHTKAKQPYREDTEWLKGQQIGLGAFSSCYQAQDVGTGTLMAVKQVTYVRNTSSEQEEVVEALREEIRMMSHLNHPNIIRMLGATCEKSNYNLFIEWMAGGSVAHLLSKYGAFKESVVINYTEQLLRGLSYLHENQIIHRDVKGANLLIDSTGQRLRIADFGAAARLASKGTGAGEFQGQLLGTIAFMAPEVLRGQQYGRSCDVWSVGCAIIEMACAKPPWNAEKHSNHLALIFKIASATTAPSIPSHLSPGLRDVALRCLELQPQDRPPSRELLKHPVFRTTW
Chain of ABL1 phosphorylated (P00519 whole entry): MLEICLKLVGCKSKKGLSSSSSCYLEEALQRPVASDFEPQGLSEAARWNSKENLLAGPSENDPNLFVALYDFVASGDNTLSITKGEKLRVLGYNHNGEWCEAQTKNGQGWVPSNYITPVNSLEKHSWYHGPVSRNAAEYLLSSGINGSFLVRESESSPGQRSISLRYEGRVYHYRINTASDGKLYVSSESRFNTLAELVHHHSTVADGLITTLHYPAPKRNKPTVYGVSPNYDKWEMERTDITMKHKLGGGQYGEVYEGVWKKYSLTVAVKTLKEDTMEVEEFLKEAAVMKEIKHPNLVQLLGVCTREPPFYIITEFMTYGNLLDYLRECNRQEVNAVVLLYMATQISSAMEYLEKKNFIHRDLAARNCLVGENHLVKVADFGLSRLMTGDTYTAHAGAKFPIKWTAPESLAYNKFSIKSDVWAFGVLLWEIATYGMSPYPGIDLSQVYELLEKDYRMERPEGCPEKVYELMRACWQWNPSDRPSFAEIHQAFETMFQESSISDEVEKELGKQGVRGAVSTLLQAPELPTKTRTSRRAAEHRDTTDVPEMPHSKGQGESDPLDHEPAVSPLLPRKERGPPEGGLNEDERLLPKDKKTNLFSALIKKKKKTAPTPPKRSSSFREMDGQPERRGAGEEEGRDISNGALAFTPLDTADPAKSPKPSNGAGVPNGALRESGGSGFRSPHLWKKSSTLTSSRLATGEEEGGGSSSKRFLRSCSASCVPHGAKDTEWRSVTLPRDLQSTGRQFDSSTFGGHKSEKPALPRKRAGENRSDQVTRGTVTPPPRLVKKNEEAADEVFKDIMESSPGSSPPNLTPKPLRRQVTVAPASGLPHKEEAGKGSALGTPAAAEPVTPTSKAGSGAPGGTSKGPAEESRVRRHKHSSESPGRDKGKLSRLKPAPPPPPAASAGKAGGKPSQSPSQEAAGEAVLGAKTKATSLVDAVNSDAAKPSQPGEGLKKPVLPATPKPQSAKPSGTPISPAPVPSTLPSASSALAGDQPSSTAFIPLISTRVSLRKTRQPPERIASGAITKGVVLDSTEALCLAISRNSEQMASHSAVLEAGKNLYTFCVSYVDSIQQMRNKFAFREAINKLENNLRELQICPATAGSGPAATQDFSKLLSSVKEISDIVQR
Chain of ABL1 non-phosphorylated (P00519 whole entry): as above
Chain of c-kit (P10721 26-976): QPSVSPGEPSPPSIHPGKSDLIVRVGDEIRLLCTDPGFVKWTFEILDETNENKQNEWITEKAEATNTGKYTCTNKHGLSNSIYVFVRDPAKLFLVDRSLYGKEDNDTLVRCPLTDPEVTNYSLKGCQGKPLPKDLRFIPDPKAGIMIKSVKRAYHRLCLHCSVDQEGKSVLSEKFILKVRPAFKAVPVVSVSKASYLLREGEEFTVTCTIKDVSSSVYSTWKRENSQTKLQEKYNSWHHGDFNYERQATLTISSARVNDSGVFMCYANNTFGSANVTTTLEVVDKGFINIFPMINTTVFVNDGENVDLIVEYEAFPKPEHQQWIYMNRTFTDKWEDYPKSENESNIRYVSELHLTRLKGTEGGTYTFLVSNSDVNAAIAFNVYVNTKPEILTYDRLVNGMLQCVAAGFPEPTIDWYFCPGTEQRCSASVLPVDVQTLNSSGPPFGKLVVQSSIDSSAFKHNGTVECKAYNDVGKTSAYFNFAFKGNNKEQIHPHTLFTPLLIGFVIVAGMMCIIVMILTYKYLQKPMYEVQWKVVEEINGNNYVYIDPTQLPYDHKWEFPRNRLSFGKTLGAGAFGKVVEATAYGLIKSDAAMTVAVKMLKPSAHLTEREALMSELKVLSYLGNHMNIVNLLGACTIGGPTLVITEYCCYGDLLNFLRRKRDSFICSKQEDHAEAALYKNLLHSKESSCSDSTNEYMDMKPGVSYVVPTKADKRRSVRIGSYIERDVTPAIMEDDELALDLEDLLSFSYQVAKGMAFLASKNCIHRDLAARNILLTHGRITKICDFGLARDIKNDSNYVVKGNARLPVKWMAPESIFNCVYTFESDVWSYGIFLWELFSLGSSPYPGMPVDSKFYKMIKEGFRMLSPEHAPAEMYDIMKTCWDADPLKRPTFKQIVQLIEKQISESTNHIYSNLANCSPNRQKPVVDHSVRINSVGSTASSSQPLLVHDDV

Take `Cc1ccc(C(=O)Nc2ccc(CN3CCN(C)CC3)c(C(F)(F)F)c2)cc1C#Cc1c(N)ncc2ccc(Cl)cc12` [HSN286]: the pKd is 8.14 on ABL1 non-phosphorylated; 8.10 at ABL1 phosphorylated; 8.19 and 8.14 on FLT3; 8.15 on FGR; under 4.52 at AURKA; 5.29 at FAK. Also, the pKd at FYN was 7.55; at BLK it was 8.41; at FLT3 (ITD, F691L), 6.96. In addition, the inhibition at 1 µM in the test on MV-4-11 (Homo sapiens, MV4-11, read-out: Percent inhibition of proliferation MV-4-11) was determined as 99%. The inhibition at 0.5 µM was determined as 15% at TGFBR2; 13% at MUSK; 0% on FAK/PTK2; 6% on MEKK1; 0% at ITK; 93% at CSK. In addition, the inhibition at 0.5 µM at ERBB4/HER4 was determined as 71%; against TRKC it was 91%; on AKT2, 3%; at CDK4/cyclin D1 it was 0%; against c-kit, 61%. In the test with NCI H1703 (NSCLC), this compound gave an IC50 of 50 nM. On SRC, the pIC50 was 8.35.
On to `CN(C)CC(O)CNC(=O)c1ccc(C#Cc2c(N)ncc3ccc(Cl)cc23)cc1` (centres unmarked) [HSM1702], for which, in the test with MV-4-11, the “Percent inhibition of proliferation MV-4-11” value was 99%. Moreover, the “Percentage kinase inhibition TGFBR2” value on TGFBR2 worked out at 0%. Moreover, the “Percentage kinase inhibition MUSK” value on MUSK turned out to be 35%. The “Percentage kinase inhibition FAK/PTK2” value at FAK/PTK2 came out at 6%. On MEKK1, the “Percentage kinase inhibition MEKK1” value turned out to be 4%. Further, on ITK, the “Percentage kinase inhibition ITK” value came out at 0%. Further, the “Percentage kinase inhibition CSK” value at CSK was 1%. At ERBB4/HER4, the “Percentage kinase inhibition ERBB4/HER4” value is on record as 0%. Further, the “% inhibition of TrkC” value on TRKC is 81%. In addition, the “Percentage kinase inhibition AKT2” value on AKT2 is 18%. In addition, the “Percentage kinase inhibition CDK4/cyclin D1” value at CDK4/cyclin D1 was determined as 16%. Also, the “% inhibition of c-Kit” value on c-kit is listed as 83%.
Consider `Cc1ccc(C(=O)Nc2ccc(CN3CCN(C)CC3)c(C(F)(F)F)c2)cc1C#Cc1cnc(N)c2ccccc12` [HSN334, 3-((1-aminoisoquinolin-4-yl)ethynyl)-4-methyl-N-(4-((4-methylpiperazin-1-yl)methyl)-3-(trifluoromethyl)phenyl)benzamide], for which the pKd on ABL1 non-phosphorylated is 8.36; at ABL1 phosphorylated, 7.92; at FLT3, 8.29. Further, the inhibition at 0.5 µM against c-kit was 73%. Also, the IC50 with NCI H1703 (NSCLC) came out at 98 nM.
Take `COc1cc2nc(N)nc(C#Cc3cc(C(=O)Nc4ccc(CN5CCN(C)CC5)c(C(F)(F)F)c4)ccc3C)c2cc1OC` [HSN325]: the inhibition at 0.5 µM on TGFBR2 is 0%; on MUSK it was 0%; at FAK/PTK2, 0%; at MEKK1, 4%; on ITK, 1%; at CSK it was 0%. Besides, the inhibition at 0.5 µM was determined as 7% at ERBB4/HER4, 4% against TRKC, 0% on AKT2 and 0% on CDK4/cyclin D1.
For the compound `Cc1ccc(C(=O)Nc2ccc(CN3CCN(C)CC3)c(C(F)(F)F)c2)cc1C#Cc1cc(N)nc2ccccc12` [HSN285], the inhibition at 0.5 µM was 0% at TRKC and 31% at c-kit.
Consider `Cc1ccc(C(=O)Nc2ccc(CN3CCN(C)CC3)c(C(F)(F)F)c2)cc1C#Cc1cnc(N)c2ncccc12` [HSN356, 3-((8-amino-1,7-naphthyridin-5-yl)ethynyl)-4-methyl-N-(4-((4-methylpiperazin-1-yl)methyl)-3-(trifluoromethyl)phenyl)benzamide], for which the pKd was 8.60 at ABL1 non-phosphorylated; 8.92 on ABL1 phosphorylated; 8.89 at FLT3; 8.10 on FGR; 5.29 on AURKA; 5.33 at FAK. The pKd is 7.42 on FYN; 8.92 at BLK; 7.55 on FLT3 (ITD, F691L). Besides, the inhibition at 0.5 µM against TRKC was 59%; at c-kit, 87%. This compound returned an IC50 with NCI H1703 (NSCLC) of 88 nM. Also, at SRC, the pIC50 was 7.83.
